Measurements published in patent US6979686B1, “Substituted pyrazoles as p38 kinase inhibitors” (Pharmacia Corporation, priority 2001, dated 2005).
pIC50: −log10 of the molar value. Where a name gives a salt, the structure may show the parent alone. Read-outs that look alike come from different tables or passages of the source. Values belong to the compound of their own block, whether it stands above or below them.

Target: T1, human p38 kinase alpha (Homo sapiens, UniProt Q16539)
T1 construct: GST (N, cleaved yes); made in house; host or cells: E. coli DH10B
T1 sequence (Q16539 whole entry): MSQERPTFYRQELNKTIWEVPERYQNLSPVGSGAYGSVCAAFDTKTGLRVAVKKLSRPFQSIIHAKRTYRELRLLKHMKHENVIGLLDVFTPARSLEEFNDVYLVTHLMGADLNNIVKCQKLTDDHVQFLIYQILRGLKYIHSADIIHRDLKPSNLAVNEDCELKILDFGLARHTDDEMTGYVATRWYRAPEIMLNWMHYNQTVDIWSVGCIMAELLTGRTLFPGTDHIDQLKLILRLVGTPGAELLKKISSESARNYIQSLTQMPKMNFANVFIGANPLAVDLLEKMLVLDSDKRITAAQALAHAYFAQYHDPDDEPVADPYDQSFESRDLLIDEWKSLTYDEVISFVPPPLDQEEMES
Assay: p38 kinase in vitro assay, phosphorylation of biotinylated PHAS-I with 32P-ATP
Type: biochemical

[1] = in vitro P38-alpha kinase inhibition, read-out: P38 alpha kinase IC50
[2] = in vitro P38-alpha kinase, read-out: P38 alpha kinase IC50
[3] = Table 8, 1% DMSO, read-out: p38α Kinase Assay IC50
[4] = read-out: P38 alpha kinase IC50

Structure (SMILES): Cc1c(-c2ccncc2)c(-c2ccc(F)cc2)nn1CC(=O)NC1CCSc2ccccc21 (stereo not drawn) [Example B-2348]
P38 alpha kinase % inhib @ conc. (@ 10.0 uM): 76.0% @

Structure (SMILES): Cc1c(-c2ccncc2)c(-c2ccc(F)cc2)nn1CC(=O)Nc1ccccc1 [Example B-2416]
P38 alpha kinase IC50, uM or % inhib @ conc. (uM): % inhib (@ 10.0 uM): 85.0% @

Structure (SMILES): CC(Oc1ccccc1)C(=O)NC(C)c1[nH]nc(-c2ccc(F)cc2)c1-c1ccncc1 (stereo not drawn) [Example B-0558]
pIC50 [1]: 6.07

Structure (SMILES): Clc1ccc(-c2[nH]nc(NC3CCNCC3)c2-c2ccncc2)cc1 [Example A-332, N-[5-(4-chlorophenyl)-4-(4-pyridinyl)-3H-pyrazol-3-yl]-4-piperidineamine, trihydrochloride, monohydrate]
pIC50 [3]: 7.40

Structure (SMILES): Cc1cccc(NC(=O)Cn2nc(-c3ccc(F)cc3)c(-c3ccncc3)c2C)c1 [Example B-2424]
P38 alpha kinase IC50, uM or % inhib @ conc. (uM): % inhib (@ 10.0 uM): 86.0% @

Structure (SMILES): O=C(Nc1ccc(F)cc1)NC(Cc1ccccc1)c1[nH]nc(-c2ccc(F)cc2)c1-c1ccncc1 (stereo not drawn) [Example B-0728]
pIC50 [1]: 4.70

Structure (SMILES): O=C(NC(Cc1ccccc1)c1[nH]nc(-c2ccc(F)cc2)c1-c1ccncc1)c1ccc(F)c(F)c1F (stereo not drawn) [Example B-0845]
pIC50 [1]: 5.75

Structure (SMILES): CC(NC(=O)c1ccc(I)cc1)c1[nH]nc(-c2ccc(F)cc2)c1-c1ccncc1 (stereo not drawn) [Example B-0540]
pIC50 [1]: 5.44

Structure (SMILES): O=C(NCc1[nH]nc(-c2ccc(F)cc2)c1-c1ccncc1)c1c(Cl)cccc1Cl [Example B-0294]
pIC50 [2]: 6.17

Structure (SMILES): COC(=O)N1CCN(c2[nH]nc(-c3ccc(Cl)cc3)c2-c2ccncc2)CC1 [Example A-319, methyl 4-[5-(4-chlorophenyl)-4-(4-pyridinyl)-1H-pyrazol-3-yl]-1-piperazinecarboxylate, monohydrate]
pIC50 [3]: 5.22

Structure (SMILES): Cc1c(-c2ccncc2)c(-c2ccc(F)cc2)nn1CC(=O)Nc1ccc(C(F)(F)F)cc1 [Example B-2439]
P38 alpha kinase IC50, uM or % inhib @ conc. (uM): % inhib (@ 10.0 uM): 81.0% @

Structure (SMILES): CC(=O)N1CCN(C(=O)Cn2nc(-c3ccc(F)cc3)c(-c3ccncc3)c2C)CC1 [Example B-2380]
P38 alpha kinase % inhib @ conc. (@ 100.0 uM): 81% @

Structure (SMILES): Cc1c(-c2ccncc2)c(-c2ccc(F)cc2)nn1CC(=O)N1CCC(N(C)C(=O)OC(C)(C)C)C1 (stereo not drawn) [Example B-2413]
P38 alpha kinase IC50, uM or % inhib @ conc. (uM): % inhib (@ 10.0 uM): 75.0% @

Structure (SMILES): Cc1c(-c2ccncc2)c(-c2ccc(F)cc2)nn1CC(=O)NCCc1ccc(Cl)c(Cl)c1 [Example B-2303]
pIC50 [2]: 7.96

Structure (SMILES): COc1ccc(NC(=O)NC(Cc2ccccc2)c2[nH]nc(-c3ccc(F)cc3)c2-c2ccncc2)cc1 (stereo not drawn) [Example B-0741]
pIC50 [1]: 4.59

Structure (SMILES): CCCC(CCC)NC(=O)Cn1nc(-c2ccc(F)cc2)c(-c2ccncc2)c1C [Example B-2356]
P38 alpha kinase % inhib @ conc. (@ 10.0 uM): 77.0% @

Structure (SMILES): CC(NS(=O)(=O)CC12CCC(CC1=O)C2(C)C)c1[nH]nc(-c2ccc(F)cc2)c1-c1ccncc1 (stereo not drawn) [Example B-0611]
pIC50 [1]: 6.19

Structure (SMILES): COCC(=O)N[C@H]1CC[C@@H](C2=NN=C(c3ccc(Cl)cc3)C2c2ccncc2)CC1 (stereo partly drawn) [Example C-96, 5-cis-[4-N-(METHOXYACETYL)AMINOCYCLOHEXYL]-4-(4-PYRIDYL)-3-(4-CHLOROPHENYL)PYRAZOLE]
pIC50 [4]: 7.11

Structure (SMILES): CN(C)[C@H]1CC[C@@H](c2[nH]nc(-c3ccc(C(F)(F)F)cc3)c2-c2ccncc2)CC1 [Example C-102, 5-cis-(4-N,N-DIMETHYLAMINOCYCLOHEXYL)-4-(4-PYRIDYL)-3-[4-(TRIFLUOROMETHYL)PHENYL]PYRAZOLE]
pIC50 [4]: 6.54

Structure (SMILES): Cc1c(-c2ccncc2)c(-c2ccc(F)cc2)nn1CC(=O)NCC(c1ccccc1)c1ccccc1 [Example B-2277]
pIC50 [2]: 4.83

Structure (SMILES): CC(NS(=O)(=O)c1ccc(-c2ccon2)s1)c1[nH]nc(-c2ccc(F)cc2)c1-c1ccncc1 (stereo not drawn) [Example B-0662]
pIC50 [1]: > 7.00

Structure (SMILES): O=C(NC(Cc1ccccc1)c1[nH]nc(-c2ccc(F)cc2)c1-c1ccncc1)c1ccc(F)cc1 (stereo not drawn) [Example B-0832]
pIC50 [1]: 5.83

Structure (SMILES): Cc1c(-c2ccncc2)c(-c2ccc(F)cc2)nn1CC(=O)Nc1ccccc1Oc1ccc(Cl)cc1 [Example B-2449]
P38 alpha kinase IC50, uM or % inhib @ conc. (uM): % inhib (@ 10.0 uM): 86.0% @

Structure (SMILES): O=S(=O)(NC(Cc1ccccc1)c1[nH]nc(-c2ccc(F)cc2)c1-c1ccncc1)c1ccccc1 (stereo not drawn) [Example B-0708]
pIC50 [1]: 5.68

Structure (SMILES): CC(NS(=O)(=O)c1cccc2cccnc12)c1[nH]nc(-c2ccc(F)cc2)c1-c1ccncc1 (stereo not drawn) [Example B-0620]
pIC50 [1]: 5.80

Structure (SMILES): Cc1ccc(S(C)(=O)=O)cc1S(=O)(=O)NC(C)c1[nH]nc(-c2ccc(F)cc2)c1-c1ccncc1 (stereo not drawn) [Example B-0668]
pIC50 [1]: 6.57

Further lines, results first:

P38 alpha kinase % inhib @ conc. (uM) (@ 1.0 uM): 70.0% @
Structure (SMILES): O=C(NCCCc1[nH]nc(-c2ccc(F)cc2)c1-c1ccncc1)c1cccc(Br)c1 [Example B-1167]

pIC50 [1]: 7.07
Structure (SMILES): O=C(NCCc1[nH]nc(-c2ccc(F)cc2)c1-c1ccncc1)c1ccccc1Br [Example B-1154]

pIC50 [1]: > 7.00
Structure (SMILES): Cc1ccc(F)cc1S(=O)(=O)NCCc1[nH]nc(-c2ccc(F)cc2)c1-c1ccncc1 [Example B-1079]

pIC50 [2]: 7.40
Structure (SMILES): O=S(=O)(NCCCc1[nH]nc(-c2ccc(F)cc2)c1-c1ccncc1)c1cc(Cl)ccc1Cl [Example B-1243]

pIC50 (activated human p38 kinase alpha, PHAS-I substrate, 50 μM unlabeled ATP, read-out: p38 kinase IC50): 6.05
Structure (SMILES): CCOC(=O)CCc1[nH]nc(-c2ccc(Cl)cc2)c1-c1ccncc1 [Example A-53]

pIC50 [2]: 6.82
Structure (SMILES): O=S(=O)(NCCCc1[nH]nc(-c2ccc(F)cc2)c1-c1ccncc1)c1ccc(Cl)cc1Cl [Example B-1253]

pIC50 [1]: 7.30
Structure (SMILES): O=S(=O)(NCCc1[nH]nc(-c2ccc(F)cc2)c1-c1ccncc1)c1ccc(C(F)(F)F)cc1 [Example B-1087]

pIC50 [1]: 6.57
Structure (SMILES): CCS(=O)(=O)NC(C)c1[nH]nc(-c2ccc(F)cc2)c1-c1ccncc1 (stereo not drawn) [Example B-0572]

pIC50 [1]: 7.59
Structure (SMILES): O=S(=O)(NCCc1[nH]nc(-c2ccc(F)cc2)c1-c1ccncc1)c1ccc(Cl)s1 [Example B-1101]

P38 alpha kinase % inhib @ conc. (uM) (@ 1.0 uM): 79.0% @
Structure (SMILES): O=C(NCCc1[nH]nc(-c2ccc(F)cc2)c1-c1ccncc1)C1CCCC1 [Example B-1004]

inhibition at 1 µM (@ 1.0 uM, read-out: P38 alpha kinase % inhib @ conc.): 70%
Structure (SMILES): COc1ccc(OC)c(CC(=O)NCc2[nH]nc(-c3ccc(F)cc3)c2-c2ccncc2)c1 [Example B-0013]

pIC50 [2]: 6.72
Structure (SMILES): C=CCOC(=O)N1CCC(c2[nH]nc(-c3ccc(F)cc3)c2-c2ccncc2)CC1 [Example B-1426]

pIC50 [2]: 6.07
Structure (SMILES): CC(C)COC(=O)N1CCC(c2[nH]nc(-c3ccc(F)cc3)c2-c2ccncc2)CC1 [Example B-1424]

pIC50 [2]: 6.37
Structure (SMILES): O=S(=O)(c1ccccc1Cl)N1CCC(c2[nH]nc(-c3ccc(F)cc3)c2-c2ccncc2)CC1 [Example B-1457]

pIC50 [2]: 6.30
Structure (SMILES): COc1ccc(C)c(S(=O)(=O)N2CCC(c3[nH]nc(-c4ccc(F)cc4)c3-c3ccncc3)CC2)c1 [Example B-1447]

P38 alpha kinase % inhib @ conc. (uM) (@ 1.0 uM): 96.0% @
Structure (SMILES): O=C(NCCc1ccccc1)NCCc1[nH]nc(-c2ccc(F)cc2)c1-c1ccncc1 [Example B-0945]

pIC50 [2]: > 7.00
Structure (SMILES): O=S(=O)(NCCCc1[nH]nc(-c2ccc(F)cc2)c1-c1ccncc1)c1cccc(Cl)c1 [Example B-1267]

pIC50 [1]: 6.09
Structure (SMILES): CC(NS(=O)(=O)C(C)C)c1[nH]nc(-c2ccc(F)cc2)c1-c1ccncc1 (stereo not drawn) [Example B-0564]

pIC50 [1]: 6.52
Structure (SMILES): CC(NC(=O)C1CCCN1)c1[nH]nc(-c2ccc(F)cc2)c1-c1ccncc1 (stereo not drawn) [Example B-0604]

P38 alpha kinase % inhib @ conc. (uM) (@ 1.0 uM): 69.0% @
Structure (SMILES): CC(C)NC(=O)NCCc1[nH]nc(-c2ccc(F)cc2)c1-c1ccncc1 [Example B-1029]

pIC50 [1]: 5.59
Structure (SMILES): CC(NC(=O)c1cccnc1)c1[nH]nc(-c2ccc(F)cc2)c1-c1ccncc1 (stereo not drawn) [Example B-0554]

pIC50 [2]: 6.17
Structure (SMILES): O=C(c1ccccc1Br)N1CCC(c2[nH]nc(-c3ccc(F)cc3)c2-c2ccncc2)CC1 [Example B-1398]
